Entries after “also recorded” stand apart in the source; their conditions may differ. Where two headings read alike, the source gives them in different places.
Experiments:
[1] = target: T1, hCB2R (Homo sapiens, UniProt P34972); experiment: biochemical; format: binding
T1 construct: expressed in transfected cells; host or cells: HEK cells stably expressing hCB2R

[2] = target: T2, hCB1R (Homo sapiens, UniProt P21554); format: binding
T2 construct: expressed in transfected cells; host or cells: CHO cells stably expressing hCB1R

[3] = target: eeAChE (Electrophorus electricus, UniProt O42275); experiment: biochemical
[4] = target: T1, hCB2R; format: cell-based
[5] = target: hAChE (Homo sapiens, UniProt P22303); experiment: biochemical; format: biochemical
[6] = target: hBChE (Homo sapiens, UniProt P06276); experiment: biochemical; format: biochemical
[7] = target: hAChE-induced Aβ40 aggregation (Homo sapiens, UniProt P22303); experiment: biochemical; format: biochemical; settings: for inhibition at 100 µM: [I] = 100 µM, Aβ40/hAChE ratio 100/1, mean ± SEM, read-out: % inhibition Aβ aggregation AChE-induced
[8] = target: Aβ42 (Homo sapiens, UniProt P05067); experiment: Aβ42 self-aggregation, thioflavin-T fluorescence assay; format: biochemical; settings: for inhibition at 50 µM: read-out: % inhibition Aβ aggregation self-induced; for inhibition of Aβ42 self-aggregation (in words): 1/1 ratio with Aβ42
[9] = system: Aβ25-35-induced learning impairments in mice; settings: mouse, ip; for dose that significantly prevented Aβ25-35-induced learning impairments / most effective dose (completely prevented Aβ25-35 impairments in both tests): in vivo
[10] = system: HT-22 cells; format: cell-based, murine
[11] = system: murine microglial cell line N9; experiment: Microglia activation: LPS-activated N9 cells, M1/M2 markers (Griess reaction, western blot); format: cell-based; settings: N9 cells, 100 ng/mL LPS, 1-5 µM compound, 24 h
[12] = eeAChE from electric eel, read-out: IC50 AChE (eeAChE)
[13] = 50 µM inhibitor and 50 µM Aβ42, mean ± SEM
[14] = hAChE recombinant expressed, read-out: IC50 AChE (hAChE)
[15] = hBChE from human serum, means of at least three determinations, read-out: IC50 hBChE

Chain of eeAChE (O42275 24-633): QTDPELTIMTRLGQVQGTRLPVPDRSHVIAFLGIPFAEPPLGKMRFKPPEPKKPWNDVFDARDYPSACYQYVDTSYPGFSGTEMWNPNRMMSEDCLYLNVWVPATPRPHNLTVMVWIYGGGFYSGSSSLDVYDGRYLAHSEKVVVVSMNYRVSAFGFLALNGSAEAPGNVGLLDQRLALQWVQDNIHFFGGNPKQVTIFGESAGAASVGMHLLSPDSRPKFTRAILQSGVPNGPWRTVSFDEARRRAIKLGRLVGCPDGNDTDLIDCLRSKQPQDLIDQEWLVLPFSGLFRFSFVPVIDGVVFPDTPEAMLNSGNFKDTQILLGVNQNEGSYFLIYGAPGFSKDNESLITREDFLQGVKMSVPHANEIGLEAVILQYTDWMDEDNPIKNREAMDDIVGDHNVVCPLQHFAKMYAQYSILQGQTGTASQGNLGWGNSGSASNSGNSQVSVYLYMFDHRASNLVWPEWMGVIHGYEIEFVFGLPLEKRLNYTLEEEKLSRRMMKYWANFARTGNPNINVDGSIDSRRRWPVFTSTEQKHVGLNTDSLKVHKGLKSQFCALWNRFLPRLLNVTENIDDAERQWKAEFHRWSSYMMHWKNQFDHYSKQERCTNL
Chain of hAChE (P22303 32-614): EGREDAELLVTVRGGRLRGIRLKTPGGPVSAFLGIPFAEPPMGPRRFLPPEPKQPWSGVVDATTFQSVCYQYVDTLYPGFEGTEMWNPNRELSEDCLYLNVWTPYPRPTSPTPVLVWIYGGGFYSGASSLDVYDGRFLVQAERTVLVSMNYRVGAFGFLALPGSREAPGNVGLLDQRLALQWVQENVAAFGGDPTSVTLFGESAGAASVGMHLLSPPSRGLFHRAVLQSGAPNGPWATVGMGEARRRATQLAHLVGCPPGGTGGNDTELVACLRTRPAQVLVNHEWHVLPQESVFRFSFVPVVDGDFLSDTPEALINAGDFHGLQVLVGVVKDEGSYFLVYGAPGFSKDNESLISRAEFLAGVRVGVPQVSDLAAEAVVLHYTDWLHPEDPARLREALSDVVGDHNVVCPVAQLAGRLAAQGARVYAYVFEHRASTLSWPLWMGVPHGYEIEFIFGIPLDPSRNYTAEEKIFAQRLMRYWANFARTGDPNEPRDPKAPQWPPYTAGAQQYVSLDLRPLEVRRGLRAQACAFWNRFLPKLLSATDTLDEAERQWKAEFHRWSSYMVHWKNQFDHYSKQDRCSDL
Chain of hAChE-induced Aβ40 aggregation (P22303 32-614): as above
Chain of hBChE (P06276 29-602): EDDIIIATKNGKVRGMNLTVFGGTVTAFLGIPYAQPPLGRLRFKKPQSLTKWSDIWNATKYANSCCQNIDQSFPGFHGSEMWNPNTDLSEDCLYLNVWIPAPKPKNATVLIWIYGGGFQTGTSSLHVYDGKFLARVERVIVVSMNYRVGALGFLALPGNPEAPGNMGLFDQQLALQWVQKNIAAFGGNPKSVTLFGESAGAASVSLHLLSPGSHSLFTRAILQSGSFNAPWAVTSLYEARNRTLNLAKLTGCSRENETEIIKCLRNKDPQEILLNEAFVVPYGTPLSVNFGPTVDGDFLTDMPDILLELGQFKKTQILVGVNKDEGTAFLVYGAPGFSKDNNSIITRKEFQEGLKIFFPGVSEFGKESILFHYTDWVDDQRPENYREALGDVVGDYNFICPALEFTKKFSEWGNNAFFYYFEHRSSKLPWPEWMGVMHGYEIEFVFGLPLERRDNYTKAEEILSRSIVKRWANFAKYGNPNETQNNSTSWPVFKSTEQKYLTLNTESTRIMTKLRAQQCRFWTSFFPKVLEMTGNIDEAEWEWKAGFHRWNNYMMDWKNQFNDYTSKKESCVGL
Chain of Aβ42 (P05067 672-713): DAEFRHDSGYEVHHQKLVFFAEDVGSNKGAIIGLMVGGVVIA
T2 sequence (P21554 whole entry): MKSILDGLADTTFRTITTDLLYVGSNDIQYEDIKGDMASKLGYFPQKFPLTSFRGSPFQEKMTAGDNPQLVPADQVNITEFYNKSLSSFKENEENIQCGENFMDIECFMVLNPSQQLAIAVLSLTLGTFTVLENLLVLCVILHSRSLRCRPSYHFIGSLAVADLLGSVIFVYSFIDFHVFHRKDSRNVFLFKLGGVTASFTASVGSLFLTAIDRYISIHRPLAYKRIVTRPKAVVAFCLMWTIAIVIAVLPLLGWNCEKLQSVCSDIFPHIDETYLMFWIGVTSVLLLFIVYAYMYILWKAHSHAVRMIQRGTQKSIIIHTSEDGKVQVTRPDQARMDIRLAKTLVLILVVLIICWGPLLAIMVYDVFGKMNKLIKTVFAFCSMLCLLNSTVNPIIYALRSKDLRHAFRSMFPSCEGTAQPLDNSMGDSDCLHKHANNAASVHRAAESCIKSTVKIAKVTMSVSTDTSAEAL
T1 sequence (P34972 whole entry): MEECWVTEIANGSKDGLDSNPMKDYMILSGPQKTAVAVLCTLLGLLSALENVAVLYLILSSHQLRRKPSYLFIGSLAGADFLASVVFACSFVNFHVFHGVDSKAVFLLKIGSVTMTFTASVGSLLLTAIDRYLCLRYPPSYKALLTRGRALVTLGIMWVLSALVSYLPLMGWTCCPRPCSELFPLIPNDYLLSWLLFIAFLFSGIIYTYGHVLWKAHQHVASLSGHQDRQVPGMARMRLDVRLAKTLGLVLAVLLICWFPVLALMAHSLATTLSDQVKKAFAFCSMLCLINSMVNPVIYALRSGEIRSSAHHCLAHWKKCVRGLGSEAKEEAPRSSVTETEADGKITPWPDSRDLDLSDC

SMILES: CCOc1ccc(Cc2nc3cc(C(=O)NCCCCNc4c5c(nc6ccccc46)CCCC5)ccc3n2CCC(C)C)cc1 [4c, 2-(4-Ethoxybenzyl)-1-isopentyl-N-(4-((1,2,3,4-tetrahydroacridin-9-yl)amino)butyl)-1H-benzo[d]imidazole-5-carboxamide]
- Ki [1]: 2510 nM
- Ki ([1]; read-out: Ki hCB2R): 2400 nM
- [^3H]CP 55,940 displ. @10 µM hCB1R [2]: 9%
- IC50 [3, 12]: 12.8 nM
- MIF gene expression [4]: reduced
- STAT-3 gene expression [4]: reduced
- behavior at the hCB2R [4]: maintained their agonist behavior

SMILES: CCOc1ccc(Cc2nc3cc(C(=O)NCCCNc4c5c(nc6ccccc46)CCCC5)ccc3n2CCC(C)C)cc1 [4b, 2-(4-Ethoxybenzyl)-1-isopentyl-N-(3-((1,2,3,4-tetrahydroacridin-9-yl)amino)propyl)-1H-benzo[d]imidazole-5-carboxamide]
- inhibitory activity towards hAChE compared to tacrine ([5]; compared to tacrine): higher inhibitory activity
- pIC50 ± SD hCB2R (in brackets after Ki) [1]: 5.0 µM (5.3 ± 0.1)
- Ki ([1]; read-out: Ki hCB2R): 5000 nM
- [^3H]CP 55,940 displ. @10 µM hCB1R [2]: 20%
- inhibitory potency towards hBChE compared to tacrine [6]: increased inhibitory potency
- inhibition of AChE-induced Aβ40 aggregation (in words) [7]: significantly reduce
- inhibition at 100 µM [7]: 47.8 ± 9.6%
- inhibition at 50 µM [8, 13]: 16.4 ± 4.2%
- inhibition of Aβ42 self-aggregation (in words) [8]: quite weak
- IC50 [3, 12]: 3.2 nM

SMILES: CCOc1ccc(Cc2nc3cc(C(=O)N(CC)CCCCNc4c5c(nc6ccccc46)CCCC5)ccc3n2CCC(C)C)cc1 [compound 5, 2-(4-ethoxybenzyl)-N-ethyl-1-isopentyl-N-(4-((1,2,3,4-tetrahydroacridin-9-yl)amino)butyl)-1H-benzo[d]imidazole-5-carboxamide]
- pIC50 ± SD AChE (hAChE) ([5]; hAChE recombinant expressed): 6.6 ± 0.1
- IC50 [5, 14]: 259 nM
- Ki [1]: 3160 nM
- affinity towards hCB2R (in words) [1]: same affinity
- selectivity hCB2R over hCB1R (in words) [1]: low selectivity
- Ki ([1]; read-out: Ki hCB2R): 3000 nM
- [^3H]CP 55,940 displ. @10 µM hCB1R [2]: 36%
- affinity towards hCB1R (in words) [2]: higher affinity
- SI [6]: 6.2
- pIC50 ± SD hBChE ([6]; hBChE from human serum): 7.2 ± 0.1
- IC50 [6, 15]: 60 nM
- IC50 [3, 12]: 370 nM

SMILES: CCOc1ccc(Cc2nc3cc(C(=O)NCCCCCCNc4c5c(nc6ccccc46)CCCC5)ccc3n2CCC(C)C)cc1 [4e, 2-(4-Ethoxybenzyl)-1-isopentyl-N-(6-((1,2,3,4-tetrahydroacridin-9-yl)amino)hexyl)-1H-benzo[d]imidazole-5-carboxamide]
- Ki [1]: 10000 nM
- Ki ([1]; read-out: Ki hCB2R): 9600 nM
- [^3H]CP 55,940 displ. @10 µM hCB1R [2]: 54%
- IC50 [3, 12]: 8.5 nM

SMILES: CCOc1ccc(Cc2nc3cc(C(=O)N(CC)CC)ccc3n2CCOCCOCCNc2c3c(nc4ccccc24)CCCC3)cc1 [compound 6, 2-(4-Ethoxybenzyl)-N,N-diethyl-1-(2-(2-(2-((1,2,3,4-tetrahydroacridin-9-yl)amino)ethoxy)ethoxy)ethyl)-1H-benzo[d]imidazole-5-carboxamide]
- Ki [1]: 31600 nM
- affinity towards hCB2R (in words) [1]: weaker affinity
- Ki ([1]; read-out: Ki hCB2R): 28700 nM
- [^3H]CP 55,940 displ. @10 µM hCB1R [2]: 11%
- IC50 [6]: 90 nM
- pIC50 ± SD hBChE [6]: 90 nM (7.0 ± 0.1)
- IC50 [3]: 150 nM

SMILES: CCOc1ccc(Cc2nc3cc(C(=O)N(CC)CC)ccc3n2CCCCCNc2c3c(nc4ccccc24)CCCC3)cc1 [3d, 2-(4-Ethoxybenzyl)-N,N-diethyl-1-(5-((1,2,3,4-tetrahydroacridin-9-yl)amino)pentyl)-1H-benzo[d]imidazole-5-carboxamide]
- dose that significantly prevented Aβ25-35-induced learning impairments [9]: 0.3 mg/kg
- pIC50 ± SD AChE (hAChE) [5]: 199 nM^b 641 nM^c (6.2 ± 0.1)
- IC50 ([5]; IC50 AChE (hAChE)): 641 nM
- Ki [1]: 7940 nM
- Ki ([1]; read-out: Ki hCB2R): 7300 nM
- neuroprotective behavior (in words) [10]: none
- [^3H]CP 55,940 displ. @10 µM hCB1R [2]: 21%
- IC50 [3]: 199 nM

SMILES: CCOc1ccc(Cc2nc3cc(C(=O)NCCOCCOCCNc4c5c(nc6ccccc46)CCCC5)ccc3n2CCC(C)C)cc1 [compound 7, 2-(4-Ethoxybenzyl)-1-isopentyl-N-(2-(2-(2-((1,2,3,4-tetrahydroacridin-9-yl)amino)ethoxy)ethoxy)ethyl)-1H-benzo[d]imidazole-5-carboxamide]
- IC50 ([5]; IC50 AChE (hAChE)): 1360 nM
- IC50 ([5]; pIC50 ± SD AChE (hAChE)): 1400 nM
- Ki [1]: 15800 nM
- affinity towards hCB2R (in words) [1]: weaker affinity
- Ki ([1]; read-out: Ki hCB2R): 17400 nM
- [^3H]CP 55,940 displ. @10 µM hCB1R [2]: 32%
- IC50 [3]: 1030 nM

SMILES: CCOc1ccc(Cc2nc3cc(C(=O)NCCSSCCNc4c5c(nc6ccccc46)CCCC5)ccc3n2CCC(C)C)cc1 [compound 8, 2-(4-Ethoxybenzyl)-1-isopentyl-N-(2-((2-((1,2,3,4-tetrahydroacridin-9-yl)amino)ethyl)disulfaneyl)ethyl)-1H-benzo[d]imidazole-5-carboxamide]
- dose that significantly prevented Aβ25-35-induced learning impairments [9]: 0.3 mg/kg
- most effective dose (completely prevented Aβ25-35 impairments in both tests) [9]: 0.3 mg/kg
- dose given for the high in vivo efficacy (conclusion) [9]: 0.1 mg/kg
- pIC50 ± SD AChE (hAChE) ([5]; hAChE recombinant expressed): 7.9 ± 0.1
- IC50 [5, 14]: 13.4 nM
- Ki [1]: 6310 nM
- affinity towards hCB2R (in words) [1]: no significant effect on affinity
- Ki ([1]; read-out: Ki hCB2R): 6800 nM
- neuroprotective behavior (in words) [10]: neuroprotection comparable to the positive control quercetin; also recorded: showed neuroprotection
- [^3H]CP 55,940 displ. @10 µM hCB1R [2]: 45%
- pIC50 ± SD hBChE ([6]; hBChE from human serum): 7.1 ± 0.1
- IC50 [6, 15]: 77 nM
- inhibition of AChE-induced Aβ40 aggregation (in words) [7]: not able to significantly inhibit
- inhibition at 100 µM [7]: 5 ± 2.6%
- inhibition at 50 µM [8, 13]: 83.4 ± 6.4%
- inhibition of Aβ42 self-aggregation (in words) [8]: strongly inhibited
- IC50 [3, 12]: 44 nM

SMILES: CCOc1ccc(Cc2nc3cc(C(=O)N(CC)CC)ccc3n2CCCCNc2c3c(nc4ccccc24)CCCC3)cc1 [3c, 2-(4-ethoxybenzyl)-N,N-diethyl-1-(4-((1,2,3,4-tetrahydroacridin-9-yl)amino)butyl)-1H-benzo[d]imidazole-5-carboxamide]
- Ki [1]: 25100 nM
- Ki ([1]; read-out: Ki hCB2R): 26900 nM
- [^3H]CP 55,940 displ. @10 µM hCB1R [2]: 32%
- IC50 [3, 12]: 157 nM

SMILES: CCOc1ccc(Cc2nc3cc(C(=O)NCCNc4c5c(nc6ccccc46)CCCC5)ccc3n2CCC(C)C)cc1 [4a, 2-(4-Ethoxybenzyl)-1-isopentyl-N-(2-((1,2,3,4-tetrahydroacridin-9-yl)amino)ethyl)-1H-benzo[d]imidazole-5-carboxamide]
- dose that significantly prevented Aβ25-35-induced learning impairments [9]: 0.3 mg/kg
- most effective dose (completely prevented Aβ25-35 impairments in both tests) [9]: 1 mg/kg
- pIC50 ± SD hCB2R (in brackets after Ki) [1]: 2.5 µM (5.6 ± 0.2)
- Ki ([1]; read-out: Ki hCB2R): 2500 nM
- NO release / nitrite accumulation [11]: reduced
- IL1β release ([11]; M1 marker): significantly decrease
- iNOS expression ([11]; M1 marker): significantly decrease
- TGFβ2 expression ([11]; M2 marker): not reduced
- TREM2 expression ([11]; M2 marker): not reduced
- IC50 [3, 12]: 2.1 nM

SMILES: Cc1c(C(=O)NN2CCCCC2)nn(-c2ccc(Cl)cc2Cl)c1-c1ccc(Cl)cc1 [Rimonabant, reference compound]
- [^3H]CP 55,940 displ. @10 µM hCB2R [1]: 4%

SMILES: CCOc1ccc(Cc2nc3cc(C(=O)N(CC)CC)ccc3n2CCCNc2c3c(nc4ccccc24)CCCC3)cc1 [3b, 2-(4-Ethoxybenzyl)-N,N-diethyl-1-(3-((1,2,3,4-tetrahydroacridin-9-yl)amino)propyl)-1H-benzo[d]imidazole-5-carboxamide]
- [^3H]CP 55,940 displ. @10 µM hCB1R [2]: 15%
- inhibitory potency towards hBChE compared to tacrine [6]: increased inhibitory potency
- IC50 [3, 12]: 130 nM

SMILES: Nc1c2c(nc3ccccc13)CCCC2 [Tacrine 1, tacrine, reference compound]
- inhibition of Aβ42 self-aggregation (in words) [8]: no effect
- inhibition at 50 µM [8]: < 5%

SMILES: CCOc1ccc(Cc2nc3cc(C(=O)NCCCCCNc4c5c(nc6ccccc46)CCCC5)ccc3n2CCC(C)C)cc1 [4d, 2-(4-Ethoxybenzyl)-1-isopentyl-N-(5-((1,2,3,4-tetrahydroacridin-9-yl)amino)pentyl)-1H-benzo[d]imidazole-5-carboxamide]
- pIC50 ± SD hCB2R (in brackets after Ki) [1]: 4.0 µM (5.4 ± 0.1)
- Ki ([1]; read-out: Ki hCB2R): 4000 nM
- [^3H]CP 55,940 displ. @10 µM hCB1R [2]: 15%
- IC50 [3, 12]: 52.7 nM

Source: patent EP3771713A1 (priority 2019, dated 2021)
